Assay results: patent publication US11795190B2, “D-glycero-B-D-heptose 1-phosphate (HMP) conjugates and use for targeted immune modulation” (NATIONAL RESEARCH COUNCIL OF CANADA, priority 2017, dated 2023)

Legend:
[1] = test system: human macrophage cells (THP-1); assay: IL-8 ELISA in THP-1 cells after digitonin-permeabilised stimulation; type: cell-based; conditions: FIG. 15, higher (150 μM) concentrations, digitonin 20 min, IL-8 after 6 hours
Experimental: FIG. 15. Stimulation of human macrophages by compounds/products according to the invention. Human macrophage cells (THP-1) were stimulated for 20 minutes in permeabilization buffer (5 μg/mL digitonin) in the presence of water, 39.8 μM of the Nod1 agonist C12-iE-DAP (which stimulates in a TIFA-independent manner), or either 30 μM or 150 μM of synthetic compound according to the invention. Treatment was removed, cells were washed, and cells were incubated for 6 hours in complete media before the IL-8 levels in culture supernatants were measured by ELISA. The results are the mean and standard error of the mean of three technical replicates. Nod1 agonist: C12-iE-DAP (20 μg/ml, 39.8 μM); JS-7: JS-7:D-glycero-β-D-manno-heptose-phosphate; JS-10: 7-O-(Aminoethyl)-D-glycero-β-D-manno-heptopyranose phosphate; JS-14: Biotin-7-O-(aminoethyl)-D-glycero-β-D-manno-heptopyranose phosphate.

[2] = test system: HCT 116 cells deficient in TIFA protein expression (TIFA KO); assay: IL-8 ELISA in TIFA knockout HCT 116 cells; type: cell-based, human; conditions: TIFA KO HCT 116
Experimental: (§1) Wild type (WT) or TIFA knockout (TIFA KO) cells were treated with compounds in the presence of digitonin for 20 min, treatment was removed, cells were washed and then cultured in normal medium without the synthetic compounds for 6 hr before IL-8 levels in culture supernatants were measured by ELISA. (A) Cells were treated with water or 10 μg/mL of the indicated compound. Data are means±standard error mean of technical triplicates. (B) Cells were treated with the NOD1 agonist C12-iE-DAP (39.8 μM) or with two different molar concentrations of compounds (30 μM or 150 μM). Two batches of dd-β-HBP and dd-β-HMP synthesized independently of one another were tested (batch #1 and batch #2) to assess consistency of the chemical synthesis. Data are means±standard error mean of two (150 μM treatment) or three (all other treatments) independent experiments. Nod1 agonist: C12-iE-DAP (20 μg/ml, 39.8 μM); JS-12: D-glycero-D-manno-heptose; JS-2: D-glycero-D-manno-heptose 7-phosphate; JS-7:D-glycero-β-D-manno-heptose-phosphate; JS-8: d-glycero-α-d-manno-heptose-phosphate; JS-9: β-d-mannose phosphate; JS-6:d-glycero-β-d-manno heptose 1,7-biphosphate; JS-5: d-glycero-α-d-manno heptose 1,7-biphosphate.
(§2) FIG. 11. Stimulation of human colonic epithelial cells by compounds/products according to the invention. Human colonic epithelial cells (HCT 116) that were either wild type (WT) or deficient in TIFA protein expression (knockout, KO) were stimulated for 20 minutes in permeabilization buffer (5 μg/mL digitonin) in the presence of water or 10 μg/mL, 30 μg/mL, or 50 μg/mL of indicated synthetic compounds according to the invention. Treatment was removed, cells were washed, and cells were incubated for 6 hours in complete media before IL-8 levels in culture supernatants was measured by ELISA. The results are the mean±standard error of the mean of three technical replicates. JS-10: 7-O-(Aminoethyl)-D-glycero-β-D-manno-heptopyranose phosphate; JS-11: 7-O-(Aminoethyl) -D-glycero-D-manno-heptopyranose; JS-12: D-glycero-D-manno-heptose; Js-13: pH-Rhodo -7-O-(aminoethyl)-D-glycero-β-D-manno-heptopyranose phosphate.
(§3) FIG. 13. Stimulation of human colonic epithelial cells by compounds/products according to the invention. Human colonic epithelial cells (HCT 116) that were either wild type (WT) or deficient in TIFA protein expression (knockout, TIFA KO) were stimulated for 20 minutes in permeabilization buffer (5 μg/mL digitonin) in the presence of water, 20 μg/mL of the Nod1 agonist C12-iE-DAP (39.8 μM, which induces inflammation in a TIFA-independent manner) or 30 μM or 150 μM of synthetic compound according to the invention. Treatment was removed, cells were washed, and cells were incubated for 6 hours in complete media before IL-8 levels in culture supernatants were measured by ELISA. The results are the mean±standard error of the mean of two (150 μM treatment) or three (all other treatments) independent experiments. #=none detected, JS-10: 7-O-(Aminoethyl)-d-glycero-β-d-manno-heptopyranose phosphate; JS-14: Biotin-7-O-(aminoethyl)-d-glycero-β-d-manno-heptopyranose phosphate, Nod1 agonist: C12-iE-DAP (20 μg/ml, 39.8 μM).
as §3, with “16.” for “13.”, “of” for “of the mean of two (150 μM treatment) or”, “technical replicates. […]” for “(all other treatments) independent experiments. #=none detected, JS-10: 7-O-(Aminoethyl)-d-glycero-β-d-manno-heptopyranose phosphate; JS-14: Biotin-7-O-(aminoethyl)-d-glycero-β-d-manno-heptopyranose phosphate, Nod1 agonist: C12-iE-DAP (20 μg/ml, 39.8 μM).”

[3] = test system: TIFA knockout (TIFA KO) HEK 293T cells encoding an NF-κB-driven luciferase reporter gene; assay: NF-κB-driven luciferase reporter assay in TIFA knockout HEK 293T cells; type: cell-based, human
Experimental: (§4) FIGS. 10A-B. Effect of chemically synthesised analogues on human embryonic kidney cells (HEK 293T) encoding an NF-κB-driven luciferase reporter gene. NF-κB luciferase activity was measured in wild type (WT) or TIFA knockout (TIFA KO) cells treated with compounds in the presence of digitonin for 20 min, washed, and then cultured in normal medium without the synthetic compounds for 6 hrs after treatment, before luciferase activity was measured. (A) Cells were treated with 10 μg/mL of the indicated compound. Data are means±standard error mean of technical triplicates. (B) Cells were treated with two different molar concentrations of compound (30 μM or 150 μM). Two batches of DD-β-HBP and DD-β-HMP synthesized independently of one another were tested (batch #1 and batch #2) to assess consistency of the chemical synthesis. Data are means±standard error mean of technical triplicates and are representative of three independent experiments. JS-12: D-glycero-D-manno-heptose; JS-2: D-glycero-D-manno-heptose 7-phosphate; JS-7:D-glycero-β-D-manno-heptose-phosphate; JS-8: D-glycero-α-D-manno-heptose-phosphate; JS-9: β-D-mannose phosphate; JS-6:D-glycero-β-D-manno heptose 1,7-biphosphate; JS-5: D-glycero-α-D-manno heptose 1,7-biphosphate.

[4] = test system: HEK 293T cells encoding an NF-κB-driven luciferase reporter gene; assay: NF-κB-driven luciferase reporter assay in HEK 293T cells; type: cell-based, human; conditions: digitonin 20 min; for inflammatory NF-κB response (luciferase activity): FIG. 10, WT HEK 293T, 10 μg/mL or 30 μM/150 μM, luciferase after 6 hrs
Experimental: as §4
FIG. 12. Effects of compounds/products according to the invention on HEK 293T cells encoding an NF-κB-driven luciferase reporter gene. HEK 293T cells were transfected with a plasmid encoding an NF-κB-driven luciferase reporter. After 24 hours, cells were stimulated for 20 minutes in permeabilization buffer (5 μg/mL digitonin) in the presence of water or 10 μg/mL, 30 μg/mL, or 50 μg/mL of indicated synthetic compounds according to the invention. Treatment was removed; cells were washed and incubated for 6 hours incomplete medium. A luciferase assay was then performed. JS-12a control: D-glycero-D-manno heptose. The results are the means±standard error of the mean of three technical replicates. JS-10: 7-O-(Aminoethyl)-D-glycero-β-D-manno-heptopyranose phosphate; JS-11: 7-O-(Aminoethyl)-D-glycero-D-manno-heptopyranose; JS-12: D-glycero-D-manno-heptose; Js-13: pH-Rhodo-7-O-(aminoethyl)-D-glycero-β-D-manno-heptopyranose phosphate.
FIG. 14. Effects of compounds/products according to the invention on HEK 293T cells encoding an NF-κB-driven luciferase reporter gene. HEK 293T cells were transfected with a plasmid encoding an NF-κB-driven luciferase reporter. After 24 hours, cells were stimulated for 20 minutes in permeabilization buffer (5 μg/mL digitonin) in the presence of water, or either 30 μM or 150 μM of indicated synthetic compounds according to the invention. Treatment was removed; cells were washed and incubated for 6 hours in complete medium. A luciferase assay was then performed. […]

[5] = test system: human colonic epithelial cells (HCT 116), wild type; assay: IL-8 ELISA in wild type HCT 116 cells after digitonin-permeabilised stimulation; type: cell-based; conditions: WT HCT 116, digitonin 20 min
Experimental: as §1, §2
FIG. 13. […] Treatment was removed, cells were washed, and cells were incubated for 6 hours in complete media before IL-8 levels in culture supernatants were measured by ELISA. The results are the mean±standard error of the mean of two (150 μM treatment) or three (all other treatments) independent experiments. #=none detected, JS-10: 7-O-(Aminoethyl)-d-glycero-β-d-manno-heptopyranose phosphate; JS-14: Biotin-7-O-(aminoethyl)-d-glycero-β-d-manno-heptopyranose phosphate, Nod1 agonist: C12-iE-DAP (20 μg/ml, 39.8 μM).
FIG. 16. […] Treatment was removed, cells were washed, and cells were incubated for 6 hours in complete media before IL-8 levels in culture supernatants were measured by ELISA. […]

[6] = FIG. 13, 30 μM or 150 μM (Nod1 agonist 39.8 μM)
[7] = FIG. 9, 10 μg/mL or 30 μM/150 μM
[8] = FIG. 9, 10 μg/mL or 30 μM/150 μM, IL-8 after 6 hr
[9] = FIG. 10, TIFA KO HEK 293T, 10 μg/mL or 30 μM/150 μM
[10] = FIG. 16, 30 μM or 150 μM (Nod1 agonist 39.8 μM)
[11] = FIG. 17, TIFA KO cells, 30 μM or 150 μM

## O=C(CCCCC1SCC2NC(=O)NC21)NCCOC[C@@H](O)C1O[C@@H](OP(=O)([O-])[O-])C(O)C(O)[C@@H]1O.[Na+].[Na+] (stereo partly drawn) [JS-14a]
[1]
  inflammatory response (IL-8 in culture supernatant): stimulate an inflammatory response
[2]; [6]
  activity in TIFA KO cells (IL-8), TIFA dependence: relative absence of activity
[3]; FIG. 14, TIFA KO cells, 30 μM or 150 μM
  activity in TIFA KO cells (NF-κB luciferase), TIFA dependence: relative absence of activity

## O=P(O)(O)OC[C@@H](O)[C@H]1O[C@@H](OP(=O)(O)O)[C@@H](O)[C@@H](O)[C@@H]1O [JS6, D-glycero-β-D-manno heptose 1,7-biphosphate, reference compound]
[4]
  inflammatory NF-κB response (luciferase activity): inflammatory NF-κB response
[2]; [7]
  activity in TIFA KO cells (IL-8), TIFA dependence: relative absence of activity
[5]; [8]
  inflammatory response (IL-8 in culture supernatant): inflammatory response
[3]; [9]
  activity in TIFA KO cells (NF-κB luciferase), TIFA dependence: relative absence of activity

## Fluorescein-7-O-(aminoethyl)-D-glycero-β-D-manno-heptopyranose phosphate [JS-25a]
[2]; [10]
  activity in TIFA KO cells (IL-8), TIFA dependence: relative absence of activity
[3]; [11]
  activity in TIFA KO cells (NF-κB luciferase), TIFA dependence: relative absence of activity

## O=P(O)(O)O[C@@H]1O[C@H]([C@H](O)CO)[C@@H](O)[C@H](O)[C@@H]1O [JS7, D-glycero-β-D-manno-heptose-phosphate]
[4]
  inflammatory NF-κB response (luciferase activity): inflammatory NF-κB response similar to that apparent with DD-β-HBP (JS6)
[2]; [7]
  activity in TIFA KO cells (IL-8), TIFA dependence: relative absence of activity
[5]; [8]
  inflammatory response (IL-8 in culture supernatant): inflammatory response similar to that apparent with DD-β-HBP (JS6)
[3]; [9]
  activity in TIFA KO cells (NF-κB luciferase), TIFA dependence: relative absence of activity

## CCCCCCCCCCCC(=O)N[C@H](CCC(=O)NC(CCCC(N)C(=O)O)C(=O)O)C(=O)O (stereo partly drawn) [Nod1 agonist, C12-iE-DAP, reference compound]
[2]; [6]
  activity in TIFA KO cells (IL-8), TIFA dependence: not TIFA-dependent
[2]; [10]
  activity in TIFA KO cells (IL-8), TIFA dependence: not TIFA-dependent

## pH-Rhodo-7-O-(aminoethyl)-D-glycero-β-D-manno-heptopyranose phosphate [JS-13a]
[4]; FIG. 12, HEK 293T, 10, 30 or 50 μg/mL, luciferase after 6 hours
  inflammatory response (NF-κB luciferase): strong inflammatory response
[2]; FIG. 11, 10, 30 or 50 μg/mL
  activity in TIFA KO cells (IL-8), TIFA dependence: relative absence of activity
[5]; FIG. 11, 10, 30 or 50 μg/mL, IL-8 after 6 hours
  inflammatory response (IL-8 in culture supernatant): strong inflammatory response
[3]; FIG. 12, TIFA KO cells, 10, 30 or 50 μg/mL
  activity in TIFA KO cells (NF-κB luciferase), TIFA dependence: relative absence of activity

## O=C(CCCCC1SCC2NC(=O)NC21)NCCOCCOCCOCCOCCC(=O)NCCOC[C@@H](O)C1O[C@@H](OP(=O)(O)O)C(O)C(O)[C@@H]1O (stereo partly drawn) [JS-24a, Biotin-PEG4-7-O-(aminoethyl)-D-glycero-β-D-manno-heptopyranose phosphate]
[2]; [10]
  activity in TIFA KO cells (IL-8), TIFA dependence: relative absence of activity
[3]; [11]
  activity in TIFA KO cells (NF-κB luciferase), TIFA dependence: relative absence of activity
